Reference: ChEMBL document CHEMBL3232866, “Design of novel potent antihyperlipidemic agents with antioxidant/anti-inflammatory properties: exploiting phenothiazine's strong antioxidant activity” (J Med Chem, 2014)
Calls of active or inactive are those of the source. The rule behind the calls is not given here.

Experiments:
Mus musculus [1] = assay: Effect on food intake in chronic high-fat diet (2.5 w/w cholesterol, 0.5% w/w cholic acid, 10% w/w peanut oil) fed SKH-2 mouse at 56 umol/kg, ip bid for 30 days; type: ADME, organism-based; settings: in vivo, 720 h
Mus musculus [2] = assay: Effect on body weight in chronic high-fat diet (2.5 w/w cholesterol, 0.5% w/w cholic acid, 10% w/w peanut oil) fed SKH-2 mouse at 56 umol/kg, ip bid for 30 days; type: ADME, organism-based; settings: in vivo, 720 h
Mus musculus [3] = assay: Effect on blood glucose level in chronic high-fat diet (2.5 w/w cholesterol, 0.5% w/w cholic acid, 10% w/w peanut oil) fed SKH-2 mouse at 56 umol/kg, ip bid for 30 days; type: ADME, organism-based; settings: in vivo, 720 h
Mus musculus [4] = assay: Antidyslipidemic activity in chronic high-fat diet (2.5 w/w cholesterol, 0.5% w/w cholic acid, 10% w/w peanut oil) fed SKH-2 mouse assessed as HDL/LDL ratio in plasma at 56 umol/kg, ip bid for 30 days measured on day 30 (reference value: 0.2 no unit); type: functional
Mus musculus [5] = assay: Antiatherosclerotic activity in apoE-/- transgenic mouse assessed as decrease in primary atherosclerotic lesions administered for 3.5 months; type: functional, organism-based
Mus musculus [6] = assay: Hepatotoxicity in apoE-/- transgenic mouse assessed as liver enzymes level administered for 3.5 months; type: toxicity, organism-based; settings: in vivo
[7] = Antioxidant activity in rat liver microsome membrane assessed as inhibition of lipid peroxidation after 45 mins by TBARS-based spectrophotometric assay; type: functional, microsomes
[8] = test system: Radical scavenging activity; assay: Antioxidant activity assessed as DPPH radical scavenging activity up to 50 uM measured within 15 mins; type: functional
[9] = test system: Radical scavenging activity; assay: Antioxidant activity assessed as DPPH radical scavenging activity after 30 mins; type: functional
[10] = target: T1, Squalene synthase (Rattus norvegicus) (UniProt Q02769); assay: (§1) Inhibition of squalene synthase in rat liver microsomes assessed as decrease in conversion of [3H]FPP to squalene
T1 sequence (whole entry): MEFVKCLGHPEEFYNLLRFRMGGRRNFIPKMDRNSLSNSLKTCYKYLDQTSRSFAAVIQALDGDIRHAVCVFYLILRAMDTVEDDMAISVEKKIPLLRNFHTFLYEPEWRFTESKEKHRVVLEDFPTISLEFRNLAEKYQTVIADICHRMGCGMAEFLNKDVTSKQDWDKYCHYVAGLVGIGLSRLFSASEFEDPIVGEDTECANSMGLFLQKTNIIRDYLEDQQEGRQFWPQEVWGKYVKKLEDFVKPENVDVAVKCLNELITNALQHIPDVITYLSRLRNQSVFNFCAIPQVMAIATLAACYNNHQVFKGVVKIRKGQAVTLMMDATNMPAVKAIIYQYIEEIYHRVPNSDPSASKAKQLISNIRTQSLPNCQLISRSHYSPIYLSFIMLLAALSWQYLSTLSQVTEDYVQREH

Squalene synthase = target: T2, Squalene synthase (Rattus norvegicus, UniProt Q02769); assay: as §1
T2 sequence (Q02769 whole entry): T1 sequence (whole entry)

[11] = target: T3, Prostaglandin G/H synthase 1 (Bos taurus) (UniProt O62664); assay: Inhibition of bovine COX-1 assessed as PGF2-alpha formation using arachidonic acid as substrate at 20 uM by enzyme immunoassay
T3 sequence (whole entry): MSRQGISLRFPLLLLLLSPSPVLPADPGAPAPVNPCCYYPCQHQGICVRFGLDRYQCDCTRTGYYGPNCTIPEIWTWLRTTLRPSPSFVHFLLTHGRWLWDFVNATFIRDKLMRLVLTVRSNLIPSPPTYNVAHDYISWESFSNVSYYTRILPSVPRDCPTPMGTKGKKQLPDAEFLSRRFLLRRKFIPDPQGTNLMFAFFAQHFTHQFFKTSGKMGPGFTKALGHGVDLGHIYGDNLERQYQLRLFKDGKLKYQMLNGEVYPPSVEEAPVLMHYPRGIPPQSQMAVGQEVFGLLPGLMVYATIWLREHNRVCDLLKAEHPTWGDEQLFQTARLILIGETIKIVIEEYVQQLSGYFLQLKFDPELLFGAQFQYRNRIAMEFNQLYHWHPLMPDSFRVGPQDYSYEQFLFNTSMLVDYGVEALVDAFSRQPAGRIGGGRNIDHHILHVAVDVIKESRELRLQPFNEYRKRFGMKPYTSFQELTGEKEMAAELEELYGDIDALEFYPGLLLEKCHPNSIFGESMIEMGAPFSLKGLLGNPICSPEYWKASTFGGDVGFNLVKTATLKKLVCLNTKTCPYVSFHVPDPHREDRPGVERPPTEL

Glycine max = assay: Inhibition of soybean lipoxygenase using sodium linoleate as substrate up to 100 uM measured for 6 mins
Rattus norvegicus [12] = assay: In vivo antidyslipidemic activity against Triton WR 1339-induced hyperlipidemic Wistar rat model assessed as decrease in total cholesterol level in plasma at 56 umol/kg, ip administered as single dose 1 hr after Triton WR 1339 challenge measured after 24 hrs; type: functional
Rattus norvegicus [13] = assay: In vivo antidyslipidemic activity against Triton WR 1339-induced hyperlipidemic Wistar rat model assessed as decrease in LDL-cholesterol level in plasma at 56 umol/kg, ip administered as single dose 1 hr after Triton WR 1339 challenge measured after 24 hrs; type: functional
Rattus norvegicus [14] = assay: In vivo antidyslipidemic activity against Triton WR 1339-induced hyperlipidemic Wistar rat model assessed as decrease in triglyceride level in plasma at 56 umol/kg, ip administered as single dose 1 hr after Triton WR 1339 challenge measured after 24 hrs; type: functional
Mus musculus [15] = assay: Antidyslipidemic activity in chronic high-fat diet (2.5 w/w cholesterol, 0.5% w/w cholic acid, 10% w/w peanut oil) fed SKH-2 mouse assessed as decrease in total cholesterol level in plasma at 56 umol/kg, ip bid for 21 days; type: functional; settings: SKH-2, Plasma, 504 h
Mus musculus [16] = assay: Antidyslipidemic activity in chronic high-fat diet (2.5 w/w cholesterol, 0.5% w/w cholic acid, 10% w/w peanut oil) fed SKH-2 mouse assessed as decrease in LDL level in plasma at 56 umol/kg, ip bid for 21 days; type: functional; settings: SKH-2, Plasma, 504 h
Mus musculus [17] = assay: Antidyslipidemic activity in chronic high-fat diet (2.5 w/w cholesterol, 0.5% w/w cholic acid, 10% w/w peanut oil) fed SKH-2 mouse assessed as decrease in total cholesterol level in plasma at 56 umol/kg, ip bid for 30 days measured on day 30; type: functional; settings: SKH-2, Plasma, 720 h
Mus musculus [18] = assay: Antidyslipidemic activity in chronic high-fat diet (2.5 w/w cholesterol, 0.5% w/w cholic acid, 10% w/w peanut oil) fed SKH-2 mouse assessed as decrease in LDL level in plasma at 56 umol/kg, ip bid for 30 days measured on day 30; type: functional; settings: SKH-2, Plasma, 720 h
Mus musculus [19] = assay: Antidyslipidemic activity in chronic high-fat diet (2.5 w/w cholesterol, 0.5% w/w cholic acid, 10% w/w peanut oil) fed SKH-2 mouse assessed as increase in HDL level in plasma at 56 umol/kg, ip bid for 30 days measured on day 30; type: functional
Mus musculus [20] = assay: Antidyslipidemic activity in chronic high-fat diet (2.5 w/w cholesterol, 0.5% w/w cholic acid, 10% w/w peanut oil) fed SKH-2 mouse assessed as triglyceride level in plasma at 56 umol/kg, ip bid for 30 days measured on day 30; type: functional, organism-based

CN1CCOC(O)(c2ccc3c(c2)Nc2ccccc2S3)C1 (racemic)
Activity (Mus musculus [1]): Non-toxic | Activity (Mus musculus [2]): Non-toxic | Activity (Mus musculus [3]): Non-toxic | Ratio (Mus musculus [4]): 1.2 | inhibition (Mus musculus [5]): Active | Activity (Mus musculus [6]): Non-toxic | IC50 [7]: 0.47 µM | Activity [8]: Active | IC50 [9]: 191 µM | inhibition [10]: Dose-dependent effect | IC50 (Squalene synthase): 5 µM | inhibition [11]: 92% | inhibition (Glycine max): inactive | inhibition in vivo at 56 µmol/kg (Rattus norvegicus [12]): 70% | inhibition in vivo at 56 µmol/kg (Rattus norvegicus [13]): 80% | inhibition in vivo at 56 µmol/kg (Rattus norvegicus [14]): 94% | inhibition in vivo at 56 µmol/kg (Mus musculus [15]): 45% | inhibition in vivo at 56 µmol/kg (Mus musculus [16]): 58% | inhibition in vivo at 56 µmol/kg (Mus musculus [17]): 53% | inhibition in vivo at 56 µmol/kg (Mus musculus [18]): 76% | Activity (Mus musculus [19]): 120% | Activity (Mus musculus [20]): inactive
